From patent US12404241B2 (Celgene Corporation, priority 2018, dated 2025)
Where a name gives a salt, the structure may show the parent alone.

Target: T1, AR (Homo sapiens, UniProt P10275)
T1 construct: endogenous in cells; host or cells: VCaP cells
T1 sequence (P10275 1-920): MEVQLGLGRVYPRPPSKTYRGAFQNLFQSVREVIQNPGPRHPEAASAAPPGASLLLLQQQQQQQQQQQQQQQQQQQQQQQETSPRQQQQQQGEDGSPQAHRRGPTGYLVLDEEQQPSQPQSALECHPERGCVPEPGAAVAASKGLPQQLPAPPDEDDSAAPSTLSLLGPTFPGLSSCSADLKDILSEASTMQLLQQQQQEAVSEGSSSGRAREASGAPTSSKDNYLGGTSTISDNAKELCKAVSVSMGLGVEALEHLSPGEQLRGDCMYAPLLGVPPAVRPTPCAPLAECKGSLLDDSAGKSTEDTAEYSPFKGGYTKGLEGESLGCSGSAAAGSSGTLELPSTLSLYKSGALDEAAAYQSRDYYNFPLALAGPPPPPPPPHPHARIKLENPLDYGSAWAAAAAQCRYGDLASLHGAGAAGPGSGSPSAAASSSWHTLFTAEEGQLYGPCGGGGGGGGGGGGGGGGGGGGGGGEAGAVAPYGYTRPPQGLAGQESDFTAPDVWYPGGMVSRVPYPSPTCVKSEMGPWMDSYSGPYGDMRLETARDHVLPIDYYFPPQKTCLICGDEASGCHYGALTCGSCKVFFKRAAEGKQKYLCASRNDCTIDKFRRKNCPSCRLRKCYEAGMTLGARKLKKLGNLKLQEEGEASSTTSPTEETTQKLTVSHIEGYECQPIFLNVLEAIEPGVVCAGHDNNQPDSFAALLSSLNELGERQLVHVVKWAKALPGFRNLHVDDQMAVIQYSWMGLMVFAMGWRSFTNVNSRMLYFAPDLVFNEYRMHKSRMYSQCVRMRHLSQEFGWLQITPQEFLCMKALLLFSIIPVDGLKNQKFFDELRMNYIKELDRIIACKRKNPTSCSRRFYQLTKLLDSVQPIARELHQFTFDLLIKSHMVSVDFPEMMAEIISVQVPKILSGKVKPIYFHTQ
Test: VCAP AR Degradation Assay
Assay type: cell-based
Conditions: for Y (AR degradation efficiency, % of DMSO control): class symbols *; for DC50: class symbols A-C, read-out: DC50
Procedure, shortened: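 AR protein in lysates quantified by sandwich ELISA after 24 h exposure of VCaP cells at 37 °C to 10 concentrations (1:3 steps, 5 μM top, final). Four-parameter logistic fit of percent-of-DMSO levels gave DC50 (50% degradation), EC50 and minimal AR level Y.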

Compound	Y (AR degradation efficiency, % of DMSO control)	DC50 [nM]
CCc1cc(N2C(=S)N(c3ccc(C#N)c(C(F)(F)F)c3)C(=O)C2(C)C)ccc1OCCN1CCN(CC(=O)Nc2cc(F)cc(NC3CCC(=O)NC3=O)c2)C(C)(C)C1 (stereo not drawn) [Example 73, 2-(4-(2-(4-(3-(4-cyano-3-(trifluoromethyl)phenyl)-5,5-dimethyl-4-oxo-2-thioxoimidazolidin-1-yl)-2-ethylphenoxy)ethyl)-2,2-dimethylpiperazin-1-yl)-N-(3-(2,6-dioxopiperidin-3-ylamino)-5-fluorophenyl)acetamide]	* (0<Y<=25%)	< 100
C[C@@H](C(=O)Nc1cccc(NC2CCC(=O)NC2=O)c1)N1CCN(CCOc2ccc(N3C(=S)N(c4ccc(C#N)c(C(F)(F)F)c4)C(=O)C3(C)C)cc2Cl)CC1 (stereo partly drawn) [Example 21, hydrochloride]	* (0<Y<=25%)	< 100
C[C@@H]1CN(CCOc2ncc(N3C(=S)N(c4ccc(C#N)c(C(F)(F)F)c4)C(=O)C34CCC4)cc2C2CC2)C[C@H](C)N1CC(=O)Nc1cccc(NC2CCC(=O)NC2=O)c1 (stereo partly drawn) [Example 229, 2-((2S,6R)-4-(2-(5-(7-(4-cyano-3-(trifluoromethyl)phenyl)-8-oxo-6-thioxo-5,7-diazaspiro[3.4]octan-5-yl)-3-cyclopropylpyridin-2-yloxy)ethyl)-2,6-dimethylpiperazin-1-yl)-N-(3-(2,6-dioxopiperidin-3-ylamino)phenyl)acetamide]	* (0<Y<=25%)	< 100
C[C@@H]1CN(CCOc2ccc(N3C(=S)N(c4cnc(C#N)c(C(F)(F)F)c4)C(=O)C3(C)C)cc2C2CCC2)C[C@H](C)N1CC(=O)Nc1cccc(NC2CCC(=O)NC2=O)c1 (stereo partly drawn) [Example 268, 2-((2R,6S)-4-(2-(4-(3-(6-cyano-5-(trifluoromethyl)pyridin-3-yl)-5,5-dimethyl-4-oxo-2-thioxoimidazolidin-1-yl)-2-cyclobutylphenoxy)ethyl)-2,6-dimethylpiperazin-1-yl)-N-(3-(2,6-dioxopiperidin-3-ylamino)phenyl)acetamide]	** (25%<Y<=35%)	< 100
C[C@@H]1CN(CCOc2ccc(N3C(=S)N(c4ccc(C#N)c(C(F)(F)F)c4)C(=O)C34CCC4)cc2CCF)CCN1CC(=O)Nc1cc(Cl)cc(NC2CCC(=O)NC2=O)c1 (stereo partly drawn) [Example 143, N-(3-chloro-5-(2,6-dioxopiperidin-3-ylamino)phenyl)-2-((R)-4-(2-(4-(7-(4-cyano-3-(trifluoromethyl)phenyl)-8-oxo-6-thioxo-5,7-diazaspiro[3.4]octan-5-yl)-2-(2-fluoroethyl)phenoxy)ethyl)-2-methylpiperazin-1-yl)acetamide]	* (0<Y<=25%)	< 100
CCc1cc(N2C(=S)N(c3ccc(C#N)c(C(F)(F)F)c3)C(=O)C2(C)C)ccc1OCCN1CCN(CC(=O)Nc2cccc(NC3CCC(=O)NC3=O)c2)[C@H](C(F)(F)F)C1 (stereo partly drawn) [Example 246, 2-((S)-4-(2-(4-(3-(4-cyano-3-(trifluoromethyl)phenyl)-5,5-dimethyl-4-oxo-2-thioxoimidazolidin-1-yl)-2-ethylphenoxy)ethyl)-2-(trifluoromethyl)piperazin-1-yl)-N-(3-(2,6-dioxopiperidin-3-ylamino)phenyl)acetamide]	* (0<Y<=25%)	< 100
CC1(C)C(=O)N(c2cnc(C#N)c(C(F)(F)F)c2)C(=S)N1c1ccc(OCCN2CCN(CC(=O)Nc3cc(NC4CCC(=O)NC4=O)ccc3F)CC2)c(CC(F)F)c1 (stereo not drawn) [Example 66, 2-(4-(2-(4-(3-(6-cyano-5-(trifluoromethyl)pyridin-3-yl)-5,5-dimethyl-4-oxo-2-thioxoimidazolidin-1-yl)-2-(2,2-difluoroethyl)phenoxy)ethyl)piperazin-1-yl)-N-(5-(2,6-dioxopiperidin-3-ylamino)-2-fluorophenyl)acetamide]	* (0<Y<=25%)	< 100
CCc1cc(N2C(=S)N(c3ccc(C#N)c(Cl)c3)C(=O)C2(C)C)ccc1OCCN1CCN(CC(=O)Nc2cccc(NC3CCC(=O)NC3=O)c2)[C@H](C)C1 (stereo partly drawn) [Example 168, 2-((R)-4-(2-(4-(3-(3-chloro-4-cyanophenyl)-5,5-dimethyl-4-oxo-2-thioxoimidazolidin-1-yl)-2-ethylphenoxy)ethyl)-2-methylpiperazin-1-yl)-N-(3-(2,6-dioxopiperidin-3-ylamino)phenyl)acetamide]	* (0<Y<=25%)	< 100
CC1(C)C(=O)N(c2ccc(C#N)c(C(F)(F)F)c2)C(=S)N1c1ccc(OCCN2CCN(CC(=O)Nc3cc(NC4CCC(=O)NC4=O)ccc3F)CC2)c(CCF)c1 (stereo not drawn) [Example 141, 2-(4-(2-(4-(3-(4-cyano-3-(trifluoromethyl)phenyl)-5,5-dimethyl-4-oxo-2-thioxoimidazolidin-1-yl)-2-(2-fluoroethyl)phenoxy)ethyl)piperazin-1-yl)-N-(5-(2,6-dioxopiperidin-3-ylamino)-2-fluorophenyl)acetamide]	* (0<Y<=25%)	< 100
CCc1cc(N2C(=S)N(c3ccc(C#N)c(C(F)(F)F)c3)C(=O)C2(C)C)cc(C)c1OCCN1C[C@@H](C)N(CC(=O)Nc2cccc(NC3CCC(=O)NC3=O)c2)[C@@H](C)C1 (stereo partly drawn) [Example 249, 2-((2R,6S)-4-(2-(4-(3-(4-cyano-3-(trifluoromethyl)phenyl)-5,5-dimethyl-4-oxo-2-thioxoimidazolidin-1-yl)-2-ethyl-6-methylphenoxy)ethyl)-2,6-dimethylpiperazin-1-yl)-N-(3-(2,6-dioxopiperidin-3-ylamino)phenyl)acetamide]	*** (35%<Y<50%)	100 to 500
CC1(C)C(=O)N(c2cnc(C#N)c(C(F)(F)F)c2)C(=S)N1c1ccc(OCCN2CCN(CC(=O)Nc3cc(Cl)cc(NC4CCC(=O)NC4=O)c3)CC2)c(CCF)c1 (stereo not drawn) [Example 72, N-(3-chloro-5-(2,6-dioxopiperidin-3-ylamino)phenyl)-2-(4-(2-(4-(3-(6-cyano-5-(trifluoromethyl)pyridin-3-yl)-5,5-dimethyl-4-oxo-2-thioxoimidazolidin-1-yl)-2-(2-fluoroethyl)phenoxy)ethyl)piperazin-1-yl)acetamide]	* (0<Y<=25%)	< 100
CC1(C)C(=O)N(c2cnc(C#N)c(C(F)(F)F)c2)C(=S)N1c1ccc(OCCN2CCN(CC(=O)Nc3cccc(NC4CCC(=O)NC4=O)c3)CC2)c(C2CCC2)c1 (stereo not drawn) [Example 36, trifluoroacetate]	* (0<Y<=25%)	< 100
CCc1cc(N2C(=S)N(c3cnc(C#N)c(C(F)(F)F)c3)C(=O)C2(C)C)ccc1OCCN1CCN(CC(=O)Nc2cc(Cl)cc(NC3CCC(=O)NC3=O)c2)[C@H](C)C1 (stereo partly drawn) [Example 145, N-(3-chloro-5-(2,6-dioxopiperidin-3-ylamino)phenyl)-2-((R)-4-(2-(4-(3-(6-cyano-5-(trifluoromethyl)pyridin-3-yl)-5,5-dimethyl-4-oxo-2-thioxoimidazolidin-1-yl)-2-ethylphenoxy)ethyl)-2-methylpiperazin-1-yl)acetamide]	* (0<Y<=25%)	< 100
CCc1cc(N2C(=S)N(c3cnc(C#N)c(C(F)(F)F)c3)C(=O)C2(C)C)ccc1OCCN1CCN([C@@H](C)C(=O)Nc2cccc(NC3CCC(=O)NC3=O)c2)CC1 (stereo partly drawn) [Example 118, (2S)-2-(4-(2-(4-(3-(6-cyano-5-(trifluoromethyl)pyridin-3-yl)-5,5-dimethyl-4-oxo-2-thioxoimidazolidin-1-yl)-2-ethylphenoxy)ethyl)piperazin-1-yl)-N-(3-(2,6-dioxopiperidin-3-ylamino)phenyl)propanamide]	* (0<Y<=25%)	< 100
C[C@@H]1CN(CC(=O)Nc2cccc(NC3CCC(=O)NC3=O)c2)[C@H](C)CN1CCOc1ccc(N2C(=S)N(c3cnc(C#N)c(C(F)(F)F)c3)C(=O)C2(C)C)cc1C1CC1 (stereo partly drawn) [Example 234, 2-((2R,5R)-4-(2-(4-(3-(6-cyano-5-(trifluoromethyl)pyridin-3-yl)-5,5-dimethyl-4-oxo-2-thioxoimidazolidin-1-yl)-2-cyclopropylphenoxy)ethyl)-2,5-dimethylpiperazin-1-yl)-N-(3-(2,6-dioxopiperidin-3-ylamino)phenyl)acetamide]	* (0<Y<=25%)	< 100
